Experimental data as given in ChEMBL document CHEMBL2010746, “Synthesis, resolution and anticonvulsant activity of chiral N-1'-ethyl,N-3'-(1-phenylethyl)-(R,S)-2'H,3H,5'H-spiro-(2-benzofuran-1,4'-imidazolidine)-2',3,5'-trione diastereomers” (2012).
The source made the active and inactive calls. The rule behind the calls is not given here.

What was measured:
Mus musculus [1] = experiment: Anticonvulsant activity in ip dosed mouse assessed as decrease in pentylenetetrazol-induced convulsions at 30 mins; assay type: functional; conditions: 0.5 h
Mus musculus [2] = experiment: Anticonvulsant activity in mouse assessed as decrease in pentylenetetrazol-induced convulsions at 300 mg/kg, ip at 30 mins; assay type: functional, organism-based; design: dose 300 mg/kg
Mus musculus [3] = experiment: Anticonvulsant activity in mouse assessed as decrease in pentylenetetrazol-induced convulsions up to 300 mg/kg, ip at 30 mins; assay type: functional, organism-based; design: dose 300 mg/kg

SMILES: CCN1C(=O)N([C@@H](C)c2ccccc2)[C@@]2(OC(=O)c3ccccc32)C1=O
- ED50 (Mus musculus [1]): 300 mg/kg

SMILES: CCN1C(=O)N([C@H](C)c2ccccc2)[C@]2(OC(=O)c3ccccc32)C1=O
- Activity (Mus musculus [2]): Active

SMILES: CCC1(c2ccccc2)C(=O)NC(=O)NC1=O [PHENOBARBITAL]
- ED50 (Mus musculus [1]): 25 mg/kg

SMILES: CCN1C(=O)N([C@H](C)c2ccccc2)[C@@]2(OC(=O)c3ccccc32)C1=O
- Activity (Mus musculus [3]): inactive

SMILES: CCN1C(=O)N([C@@H](C)c2ccccc2)[C@]2(OC(=O)c3ccccc32)C1=O
- Activity (Mus musculus [3]): inactive
